According to patent publication US20140128472A1, “TREATMENT AND PREVENTION OF DISEASES RELATED TO OXIDATIVE STRESS” (UNIVERSITY OF PÉCS, priority 2011, published 2014):
Entries after “also recorded” stand apart in the source; their conditions may differ.

Key:
3T3-L1 adipocytes = test: Insulin-dependent uptake of deoxy-D-glucose 2-[1 2-3H(N)] into 3T3-L1 adipocytes; format: cell-based, mouse
Method: (§1) Primary cultures of mouse embryo fibroblasts (3T3-L1) were purchased from ATCC (Manassas, US). Early passages of 3T3-L1 fibroblasts were cultured in Dulbecco's modified Eagle medium ((DMEM, Invitrogen, CAT number: 41966-029; Sigma Aldrich CAT number: D6046) supplemented with 10% Fetal Bovine Serum (Gibco, CAT number: 16170-078), 100 U/ml penicillin and 0.1 mg/ml streptomycin (Gibco, CAT number: 15070-063) and 398 nM p-, m-, or o-Tyr. DMEM contained 25 or 5 mM glucose (depending on the experiment), L-glutamine, and pyruvate. Cells were grown in a humidified incubator at 37° C. and 5% CO2. Differentiation medium consisted of DMEM supplemented with 10% Fetal Bovine Serum (FBS, Gibco, Csertex, Budapest, Hungary, CAT number: 10106-169) (FBS), to which a cocktail was added containing […] isobuthylmethylxanthine (Sigma Aldrich, CAT number: I 5879), 0.17 nM insulin (Sigma Aldrich, CAT number: I 9278) and 250 nM dexamethasone (Sigma Aldrich, CAT number: 861871). From Day 4 onward, cells were maintained in DMEM/10% FBS containing […] insulin with a media change every other day until experimental treatments were initiated. For all treatments, cells were incubated overnight in serum-deprived medium after 90% of the cell population reached the adipocyte phenotype.
Cells were incubated in glucose free DMEM (Gibco, Csertex, Hungary) for 30 minutes, then treated with 2, 20, 200 or 400 nmol/l insulin for 100 minutes. Simultaneously 1 μCi/ml deoxy-D-glucose 2-[1 2-3H(N)] (3.7×104 Bq/ml) (Izotóp Intézet, Hungary) was added to the plates for 100 minutes Cells were scraped into the medium and centrifuged for 5 minutes at 1000 rpm. The sediment was dissolved in 70 μl of lysis-buffer and glucose uptake was assessed by scintillation counting measuring 30 μl of the sample with a Beckman LS 5000 TD counter in counts per minute (CPM) for five minutes each, using an average activity as the outcome. Samples were frozen overnight at −70° C. and protein concentration was measured using a Hitachi spectrophotometer. Results were normalized for protein content (Kaddai2009).

Akt (protein kinase B) = test: Insulin-induced phosphorylation of Akt in 3T3-L1 adipocytes (Western blot); format: cell-based, mouse
Method: as §1
Following the treatment cells were washed twice with Saline (4° C.) to remove any trace of the medium, then exposed to 80 μL lysis buffer/plate, containing 1.15% Triton X, 1M Trisbase, pH 7.4, 0.5 M EDTA, pH 8, 0.2 M EGTA, pH 7, 0.1 M dithiothreitol (DTT), 5 mg/ml phenylmethylsulfonyl fluoride (PMSF), 0.1 M Na3VO4, 5 mg/ml leupeptin, 5 mg/ml aprotinin, Phoshatase Inhibitor Coctail 1 and 2 (Sigma Aldrich, CAT number: P2850 and P5726). Adypocytes were scraped off mechanically and then frozen at −70° C.
The samples of EC lysates were sonicated (2 min) and centrifuged (10 min, 13,000 rpm, at 4° C.). Protein content of samples was determined by the Bradford method using bovine serum albumin as a standard Bio-Rad Benchmark Plus. Samples were solubilized in a buffer of 100 mM Tris-HCl (pH 6.8), 4.0% sodium dodecyl sulphate (SDS), 20% glycerol, 200 mM DTT, and 0.2% bromophenol blue. […]
Membranes were incubated overnight with the immunoglobulin G (IgG) monoclonal antibodies diluted to 1:1000 in TBS-T (0.1%), containing 5% bovine serum (BS). […] Blots were detected using enhanced chemiluminescence (ECL; Pierce Biotech, Bio-Rad, Budapest, Hungary). Computerized densitometry (integrated optical density) of the specific bands was analyzed with Scion Image for Windows Software. […]

[1] = cells grown 11 days on medium with the tyrosine isomer + 5 mM glucose, insulin 2, 20, 200, 400 nM

Row | SMILES | Insulin-induced glucose uptake at equimolar concentrations with p-Tyr (3T3-L1 adipocytes; 72-72 mg/l m-Tyr or o-Tyr and p-Tyr, insulin 400 nM) | Insulin-dependent deoxy-D-glucose uptake (3T3-L1 adipocytes; [1]) | Baseline glucose uptake (3T3-L1 adipocytes; cells grown on m-Tyr- or o-Tyr-containing medium (72 mg/l) for different time periods, no insulin) | Insulin-induced glucose uptake, time dependence (3T3-L1 adipocytes; m-Tyr or o-Tyr 72 mg/l for different time periods, insulin 400 nM, time-dependent manner) | Ability to inhibit insulin-induced glucose uptake, dependence on concentration (3T3-L1 adipocytes; m-Tyr or o-Tyr 2.25-72 mg/l with p-Tyr 72 mg/l, insulin 400 nM) | Insulin-induced Akt phosphorylation (Akt (protein kinase B); cells grown on m-Tyr or o-Tyr, insulin 200 and 400 nmol/l) | Insulin-dependent deoxy-D-glucose uptake (3T3-L1 adipocytes; cells grown 11 days on p-Tyr + high glucose (25 mM)) | Increase in glucose uptake by insulin (3T3-L1 adipocytes; cells grown on p-Tyr and normal glucose, insulin 400 nM) | Excess concentration of p-Tyr over m-Tyr or o-Tyr in the media needed to compete (3T3-L1 adipocytes; read from FIG. 3, insulin 400 nM) | Insulin-induced Akt phosphorylation (Akt (protein kinase B); cells grown on high glucose media with p-Tyr only) | Increase in Akt (protein kinase B) phosphorylation by insulin compared to controls (Akt (protein kinase B); cells grown on p-Tyr and low glucose, increasing doses of insulin) [fold]
1 | N[C@@H](Cc1ccccc1O)C(=O)O [o-Tyr, Ortho-L-tyrosine] | fully inhibit insulin-induced glucose uptake; also recorded: insulin had no effect on glucose uptake at all | no insulin effect could be verified | did not show a marked change | blocked | concentration-dependent | inhibited the insulin-induced Akt-phosphorylation; also recorded: could not be significantly enhanced by insulin |  |  |  |  | 
2 | N[C@@H](Cc1ccc(O)cc1)C(=O)O [p-Tyr, Para-L-tyrosine] |  | increasing concentrations of insulin lead to an increase in deoxy-D-glucose uptake |  |  |  |  | insulin failed to increase glucose uptake | approx. 2 fold | 8-32 fold | significantly lower Akt-phosphorylation | 3
